Measurements taken from ChEMBL document CHEMBL1909046, “DrugMatrix in vitro pharmacology data”.
Where a SMILES comes first, the peptide text is derived from it. Bridges are numbered along the chain shown (N, C = ends). [ ]: non-standard residue; d: D form. The star is where a group is joined. Threoninol(2S,3R) = C[C@@H](O)[C@H](CO)N*

Columns and labels:
[1] = biological target: T1, Receptor-type tyrosine-protein phosphatase C (Homo sapiens, UniProt P08575); set-up: species or system Escherichia coli;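 further: inhibition of CD45 enzyme activity measured using DiFMUP as substrate; in other assays of this panel Not Active means under 50% inhibition at 10 µM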
T1 sequence (P08575 whole entry): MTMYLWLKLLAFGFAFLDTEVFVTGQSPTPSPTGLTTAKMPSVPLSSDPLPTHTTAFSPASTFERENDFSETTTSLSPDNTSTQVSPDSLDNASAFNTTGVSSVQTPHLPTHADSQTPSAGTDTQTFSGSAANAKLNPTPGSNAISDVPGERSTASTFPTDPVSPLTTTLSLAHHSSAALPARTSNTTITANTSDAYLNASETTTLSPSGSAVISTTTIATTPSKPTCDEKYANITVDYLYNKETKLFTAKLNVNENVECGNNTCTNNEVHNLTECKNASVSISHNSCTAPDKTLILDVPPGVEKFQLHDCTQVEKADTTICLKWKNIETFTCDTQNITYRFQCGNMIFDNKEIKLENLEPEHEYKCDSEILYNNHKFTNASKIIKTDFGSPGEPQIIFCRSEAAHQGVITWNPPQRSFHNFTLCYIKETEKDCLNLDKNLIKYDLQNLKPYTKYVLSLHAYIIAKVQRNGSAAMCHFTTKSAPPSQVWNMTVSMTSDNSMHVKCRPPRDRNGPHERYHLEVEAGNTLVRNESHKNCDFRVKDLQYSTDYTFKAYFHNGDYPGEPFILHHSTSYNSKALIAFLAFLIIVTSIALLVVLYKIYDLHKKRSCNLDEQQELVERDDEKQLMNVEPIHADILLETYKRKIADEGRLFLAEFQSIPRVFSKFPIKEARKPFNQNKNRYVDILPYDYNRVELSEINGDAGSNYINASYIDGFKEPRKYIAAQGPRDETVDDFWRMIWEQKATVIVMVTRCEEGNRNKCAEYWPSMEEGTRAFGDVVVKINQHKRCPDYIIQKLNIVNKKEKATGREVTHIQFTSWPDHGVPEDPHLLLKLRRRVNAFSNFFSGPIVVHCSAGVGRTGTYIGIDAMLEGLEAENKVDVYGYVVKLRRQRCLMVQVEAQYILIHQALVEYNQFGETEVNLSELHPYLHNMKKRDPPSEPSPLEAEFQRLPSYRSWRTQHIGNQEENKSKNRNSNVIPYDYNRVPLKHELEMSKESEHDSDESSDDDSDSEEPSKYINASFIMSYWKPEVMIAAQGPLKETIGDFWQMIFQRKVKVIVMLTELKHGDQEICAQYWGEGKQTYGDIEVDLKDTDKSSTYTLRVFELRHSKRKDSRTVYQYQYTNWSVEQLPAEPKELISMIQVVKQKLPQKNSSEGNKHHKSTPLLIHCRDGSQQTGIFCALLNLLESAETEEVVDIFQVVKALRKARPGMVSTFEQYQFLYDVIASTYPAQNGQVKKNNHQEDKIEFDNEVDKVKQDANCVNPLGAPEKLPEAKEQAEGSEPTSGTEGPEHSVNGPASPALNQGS

[2] = DRUGMATRIX: Sodium/nucleoside co-transporter radioligand binding (ligand: nitrobenzylthioinosine); format: cell membranes, Cavia porcellus, Dunkin-Hartley, Cerebral cortex, Membrane; conditions: Not Active = under 50% inhibition at 10 µM
Nitric oxide synthase 1 = Nitric oxide synthase 1 (Rattus norvegicus, UniProt P29476); format: tissue-based, Cerebellum; further: in other assays of this panel Not Active means under 50% inhibition at 10 µM
Chain of Nitric oxide synthase 1 (P29476 whole entry): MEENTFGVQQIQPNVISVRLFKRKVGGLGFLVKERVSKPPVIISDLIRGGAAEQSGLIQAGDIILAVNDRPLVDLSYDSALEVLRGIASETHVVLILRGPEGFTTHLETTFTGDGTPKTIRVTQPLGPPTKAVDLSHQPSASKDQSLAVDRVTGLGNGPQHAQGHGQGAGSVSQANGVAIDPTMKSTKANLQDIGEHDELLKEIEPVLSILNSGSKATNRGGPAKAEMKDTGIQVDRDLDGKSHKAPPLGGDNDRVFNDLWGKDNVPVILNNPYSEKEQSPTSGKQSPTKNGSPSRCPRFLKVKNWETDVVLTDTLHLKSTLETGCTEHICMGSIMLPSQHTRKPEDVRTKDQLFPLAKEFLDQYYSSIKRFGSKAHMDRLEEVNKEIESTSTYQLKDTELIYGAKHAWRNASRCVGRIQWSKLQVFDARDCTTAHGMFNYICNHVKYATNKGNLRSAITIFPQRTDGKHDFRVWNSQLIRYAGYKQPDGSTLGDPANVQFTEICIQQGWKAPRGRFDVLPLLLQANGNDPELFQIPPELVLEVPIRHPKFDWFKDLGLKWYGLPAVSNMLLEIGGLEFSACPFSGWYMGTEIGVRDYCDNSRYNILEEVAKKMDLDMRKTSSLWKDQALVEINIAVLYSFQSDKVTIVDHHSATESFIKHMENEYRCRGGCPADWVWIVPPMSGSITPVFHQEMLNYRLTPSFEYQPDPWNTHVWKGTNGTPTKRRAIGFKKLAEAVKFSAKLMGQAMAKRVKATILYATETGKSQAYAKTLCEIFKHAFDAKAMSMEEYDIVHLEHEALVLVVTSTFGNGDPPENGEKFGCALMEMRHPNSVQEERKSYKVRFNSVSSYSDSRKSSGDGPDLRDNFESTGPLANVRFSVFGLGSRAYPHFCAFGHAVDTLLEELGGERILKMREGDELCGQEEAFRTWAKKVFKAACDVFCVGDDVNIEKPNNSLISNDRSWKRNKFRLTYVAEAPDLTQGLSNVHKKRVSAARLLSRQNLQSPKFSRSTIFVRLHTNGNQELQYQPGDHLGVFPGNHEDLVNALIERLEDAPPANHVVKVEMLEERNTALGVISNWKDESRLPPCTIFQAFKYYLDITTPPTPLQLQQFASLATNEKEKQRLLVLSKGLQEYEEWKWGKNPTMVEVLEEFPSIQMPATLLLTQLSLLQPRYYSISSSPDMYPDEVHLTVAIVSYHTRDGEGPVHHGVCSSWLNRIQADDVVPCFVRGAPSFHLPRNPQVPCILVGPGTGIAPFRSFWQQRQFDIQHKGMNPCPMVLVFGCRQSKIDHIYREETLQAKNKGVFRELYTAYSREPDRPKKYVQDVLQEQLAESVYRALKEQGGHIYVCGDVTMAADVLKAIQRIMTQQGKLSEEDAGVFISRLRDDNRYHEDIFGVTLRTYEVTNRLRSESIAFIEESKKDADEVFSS

Progesterone receptor = biological target: T2, Progesterone receptor (Bos taurus, UniProt Q690N0); experiment: DRUGMATRIX: Progesterone radioligand binding (ligand: [3H] R-5020); format: tissue-based, Uterus; conditions: Not Active = under 50% inhibition at 10 µM
T2 sequence (Q690N0 whole entry): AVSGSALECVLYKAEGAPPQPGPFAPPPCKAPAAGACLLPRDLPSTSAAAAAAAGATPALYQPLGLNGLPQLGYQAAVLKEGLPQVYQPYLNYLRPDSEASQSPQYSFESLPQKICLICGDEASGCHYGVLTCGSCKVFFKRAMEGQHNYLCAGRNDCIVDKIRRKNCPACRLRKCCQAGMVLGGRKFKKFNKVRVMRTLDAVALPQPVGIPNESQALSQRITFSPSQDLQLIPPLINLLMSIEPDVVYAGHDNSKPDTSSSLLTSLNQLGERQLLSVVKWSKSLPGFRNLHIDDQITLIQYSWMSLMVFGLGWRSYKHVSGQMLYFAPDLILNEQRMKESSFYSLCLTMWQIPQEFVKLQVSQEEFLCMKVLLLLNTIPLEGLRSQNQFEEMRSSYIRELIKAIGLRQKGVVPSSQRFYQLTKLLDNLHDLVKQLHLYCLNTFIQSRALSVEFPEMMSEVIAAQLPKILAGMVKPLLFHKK

Leukotriene C4 synthase = biological target: T3, Leukotriene C4 synthase (Cavia porcellus, UniProt A6XA80); format: tissue-based, Lung;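 further: enzyme inhibition assay of leukotriene C4 synthase, using LTA4 as the substrate; in other assays of this panel Not Active means under 50% inhibition at 10 µM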
T3 sequence (A6XA80 whole entry): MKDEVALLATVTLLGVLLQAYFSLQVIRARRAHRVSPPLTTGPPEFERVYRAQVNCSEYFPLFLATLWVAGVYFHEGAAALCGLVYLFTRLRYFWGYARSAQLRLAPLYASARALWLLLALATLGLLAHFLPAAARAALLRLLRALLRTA

Estrogen receptor = biological target: T4, Estrogen receptor (Homo sapiens, UniProt P03372); conditions: sf9; further: in other assays of this panel Not Active means under 50% inhibition at 10 µM
T4 sequence (P03372 whole entry): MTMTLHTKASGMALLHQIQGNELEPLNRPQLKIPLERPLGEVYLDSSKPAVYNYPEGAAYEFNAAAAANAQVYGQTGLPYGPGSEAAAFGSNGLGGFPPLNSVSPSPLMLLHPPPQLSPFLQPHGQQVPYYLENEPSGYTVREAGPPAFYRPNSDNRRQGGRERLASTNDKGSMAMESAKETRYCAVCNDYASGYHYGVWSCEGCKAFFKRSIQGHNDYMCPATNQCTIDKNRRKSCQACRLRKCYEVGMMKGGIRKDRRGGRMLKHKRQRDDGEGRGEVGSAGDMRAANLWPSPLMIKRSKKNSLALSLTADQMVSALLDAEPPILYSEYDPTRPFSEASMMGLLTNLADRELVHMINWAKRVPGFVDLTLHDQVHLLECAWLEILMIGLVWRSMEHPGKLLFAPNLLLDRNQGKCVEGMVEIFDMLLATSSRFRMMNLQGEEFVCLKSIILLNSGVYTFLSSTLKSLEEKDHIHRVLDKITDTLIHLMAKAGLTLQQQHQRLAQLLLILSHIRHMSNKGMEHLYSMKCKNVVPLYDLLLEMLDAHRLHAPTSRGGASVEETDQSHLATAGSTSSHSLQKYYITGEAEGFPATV

Cytochrome P450 2C19 = Cytochrome P450 2C19 (Homo sapiens, UniProt P33261); conditions: bti-tn-5b1-4; further: in other assays of this panel Not Active means under 50% inhibition at 10 µM
Chain of Cytochrome P450 2C19 (P33261 whole entry): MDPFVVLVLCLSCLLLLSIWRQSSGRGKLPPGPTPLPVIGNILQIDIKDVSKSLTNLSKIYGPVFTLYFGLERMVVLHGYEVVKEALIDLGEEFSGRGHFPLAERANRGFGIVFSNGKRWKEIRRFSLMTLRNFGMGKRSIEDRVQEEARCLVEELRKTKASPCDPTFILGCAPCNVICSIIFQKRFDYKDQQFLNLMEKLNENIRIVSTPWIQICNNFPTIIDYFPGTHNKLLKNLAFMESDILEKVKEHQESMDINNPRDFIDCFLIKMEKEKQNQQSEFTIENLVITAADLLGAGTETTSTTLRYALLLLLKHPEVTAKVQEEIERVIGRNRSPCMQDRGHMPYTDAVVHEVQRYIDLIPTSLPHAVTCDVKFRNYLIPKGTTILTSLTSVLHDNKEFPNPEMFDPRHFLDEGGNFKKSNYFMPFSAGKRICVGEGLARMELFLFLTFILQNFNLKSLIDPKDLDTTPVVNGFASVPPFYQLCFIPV

| SMILES | IC50 [1] | IC50 [2] | Ki [2] | IC50 (Nitric oxide synthase 1) | IC50 (Progesterone receptor) | IC50 (Leukotriene C4 synthase) | IC50 (Estrogen receptor) | IC50 (Cytochrome P450 2C19) | Ki (Cytochrome P450 2C19) | Ki [1] | Ki (Nitric oxide synthase 1) | Ki (Progesterone receptor) | Ki (Leukotriene C4 synthase) | Ki (Estrogen receptor) | IC50 (Progesterone receptor; read-out: IC50) | Ki (Progesterone receptor; read-out: Ki) |
| --- | --- | --- | --- | --- | --- | --- | --- | --- | --- | --- | --- | --- | --- | --- | --- | --- |
| C[C@@H](O)[C@H](CO)NC(=O)[C@@H]1CSSC[C@H](NC(=O)[C@H](N)Cc2ccccc2)C(=O)N[C@@H](Cc2ccccc2)C(=O)N[C@H](Cc2c[nH]c3ccccc23)C(=O)N[C@@H](CCCCN)C(=O)N[C@@H]([C@@H](C)O)C(=O)N1 (H-[dF]CF[dW]KTC-{Threoninol(2S,3R)}; disulfide 2-7) | Not Active | Not Active | Not Active | Not Active | Not Active | Not Active | Not Active | Not Active | Not Active |  |  |  |  |  |  |  |
| Cc1nccn1CC1CCc2c(c3ccccc3n2C)C1=O (stereo not given) [ONDANSETRON] | Not Active | Not Active | Not Active | Not Active | Not Active | Not Active | Not Active | Not Active | Not Active |  |  |  |  |  |  |  |
| COc1cc2c(c3oc(=O)c4c(c13)CCC4=O)[C@@H]1C=CO[C@@H]1O2 [AFLATOXIN] | Not Active | Not Active | Not Active | Not Active | Not Active | Not Active | Not Active | Not Active | Not Active | Not Active | Not Active | Not Active | Not Active | Not Active |  |  |
| CC1(C)O[C@@H]2C[C@H]3[C@@H]4C[C@H](F)C5=CC(=O)CC[C@]5(C)[C@H]4[C@@H](O)C[C@]3(C)[C@]2(C(=O)CO)O1 [FLURANDRENOLIDE] | Not Active | Not Active | Not Active | Not Active |  | Not Active | Not Active | Not Active | Not Active |  |  |  |  |  | 0.172 µM | 0.022 µM |
| CC1(C)O[C@@H]2C[C@H]3[C@@H]4C[C@H](F)C5=CC(=O)C=C[C@]5(C)[C@@]4(F)[C@@H](O)C[C@]3(C)[C@]2(C(=O)CO)O1 [FLUOCINOLONE ACETONIDE] | Not Active | Not Active | Not Active | Not Active |  | Not Active | Not Active | Not Active | Not Active |  |  |  |  |  | 0.026 µM | 0.00335 µM |
| CC(C(=O)O)c1cccc(C(=O)c2ccccc2)c1 (stereo not given) [KETOPROFEN] | Not Active | Not Active | Not Active | Not Active | Not Active | Not Active | Not Active | Not Active | Not Active |  |  |  |  |  |  |  |
| O=c1ccc2ccccc2o1 [COUMARIN] | Not Active | Not Active | Not Active | Not Active | Not Active | Not Active | Not Active | Not Active | Not Active |  |  |  |  |  |  |  |
| CN1C(=O)COc2c(C(=O)NC3CN4CCC3CC4)cc(Cl)cc21 (stereo not given) [AZASETRON] | Not Active | Not Active | Not Active | Not Active | Not Active | Not Active | Not Active | Not Active | Not Active |  |  |  |  |  |  |  |
| C[C@H]1C[C@H]2[C@@H]3CCC4=CC(=O)C=C[C@]4(C)[C@@]3(Cl)[C@@H](O)C[C@]2(C)[C@@]1(O)C(=O)CO [BECLOMETHASONE] | Not Active | Not Active | Not Active | Not Active | Not Active | Not Active | Not Active | Not Active | Not Active |  |  |  |  |  |  |  |
| Cc1cc(=O)n(-c2ccccc2)n1C [ANTIPYRINE] | Not Active | Not Active | Not Active | Not Active | Not Active | Not Active | Not Active | Not Active | Not Active |  |  |  |  |  |  |  |
| COc1cccc2c1C(=O)c1c(O)c3c(c(O)c1C2=O)C[C@@](O)(C(=O)CO)C[C@@H]3O[C@H]1C[C@H](N)[C@@H](O)[C@H](C)O1 [EPIRUBICIN] | Not Active | Not Active | Not Active | Not Active | Not Active | Not Active | Not Active | Not Active | Not Active |  |  |  |  |  |  |  |
| COc1ccc2c(c1)[C@]13CCCC[C@@H]1[C@H](C2)N(C)CC3 [DEXTROMETHORPHAN] | Not Active | Not Active | Not Active | Not Active | Not Active | Not Active | Not Active | Not Active | Not Active |  |  |  |  |  |  |  |
| COP(=O)(OC)OC=C(Cl)Cl [DICHLORVOS] | Not Active | Not Active | Not Active | Not Active | Not Active | Not Active | Not Active | Not Active | Not Active |  |  |  |  |  |  |  |
| CN(C)/N=N/c1[nH]cnc1C(N)=O [DACARBAZINE] | Not Active | Not Active | Not Active | Not Active | Not Active | Not Active | Not Active | Not Active | Not Active |  |  |  |  |  |  |  |
| Oc1ccc(OCc2ccccc2)cc1 [MONOBENZONE] | Not Active | Not Active | Not Active | Not Active | Not Active | Not Active | Not Active | Not Active | Not Active |  |  |  |  |  |  |  |
| COc1ccc2c(c1)c(CC(=O)O)c(C)n2C(=O)c1ccc(Cl)cc1 [INDOMETHACIN] | Not Active | Not Active | Not Active | Not Active | Not Active | Not Active | Not Active | Not Active | Not Active |  |  |  |  |  |  |  |
| CC(C)[C@H]1CC[C@H](C(=O)N[C@H](Cc2ccccc2)C(=O)O)CC1 [NATEGLINIDE] | Not Active | Not Active | Not Active | Not Active | Not Active | Not Active | Not Active | Not Active | Not Active |  |  |  |  |  |  |  |
